We go through 25 compounds from paper PMC3898741, “Substituted imidazopyridazines are potent and selective inhibitors of Plasmodium falciparum calcium-dependent protein kinase 1 (PfCDPK1)” (Bioorganic & Medicinal Chemistry Letters, 2013).

Like-named read-outs stand apart in the source and are kept apart here. Where only a bound is given, the exact number is not on record here.

Data set [1] addresses PfCDPK1 (Plasmodium falciparum, UniProt P62344). As to the kind of experiment: PfCDPK1 enzyme inhibition (Kinase-Glo ATP depletion). The data set is classed as biochemical. The conditions noted are these: for IC50: isolated recombinant enzyme. As for the experimental part:
[10] A high throughput screen of 35,422 compounds comprising a diverse set of small molecules from a variety of commercial suppliers and 8100 kinase-focused compounds (BioFocus) was performed using Kinase-Glo® (Promega) to measure ATP depletion resulting from the kinase reaction. Full length recombinant PfCDPK1 was incubated with MyoA-Tail domain Interacting Protein (MTIP) substrate and the amount of ATP remaining after 1 h was measured by luminescence using a Pherastar plate reader (BMG Labtech).
(In general: Kinase-Glo measures the ATP left after a reaction by luminescence.)

In data set [2] the test system is P. falciparum parasite. As to the kind of experiment: In vitro P. falciparum parasite growth (FACS, hydroethidine). The data set is classed as cell-based, Plasmodium falciparum. The conditions noted are these: for inhibition at 1 µM / EC50: Plasmodium falciparum; for inhibition at 1 µM: at 1 μM inhibitor concentration. The protocol:
[15] P. falciparum EC50 values were measured using an in vitro model of malaria parasite growth. Compounds were diluted into 2% DMSO and added to parasites 24 h post-invasion in a 96-well plate and incubated under static conditions. Cells were recovered 48 h later and processed for FACS analysis using hydroethidine to stain parasite DNA. Data was acquired using CellQuest Pro software on a FACSCalibur (Becton Dickinson). Growth inhibition was calculated using the following formula: % growth inhibition = (1 − [parasitaemia of culture/parasitaemia of control culture]) ×100.

Data set [3] can be described thus: Mouse liver microsome stability (MLM). It is filed as in vitro ADME. The conditions noted are these: % remaining at 30 min, mouse microsomes. Background: Liver microsomes are a subcellular fraction often used to study metabolism.
Data set [4] can be described thus: Human liver microsome stability (HLM). Particulars: % remaining at 30 min, human microsomes. It is filed as in vitro ADME.
Data set [5] can be described thus: Measured log D. It is filed as physicochemical. An excerpt:
Table 6 In vitro ADME and in vivo efficacy data for selected compounds | column: 17; 24; 27; 28

The subject of data set [6] is P. berghei. As to the kind of experiment: 4-Day Peters test in P. berghei mouse model. It is filed as in vivo. The conditions noted are these: oral once daily 50 mg/kg, 4 days, relative to vehicle. As for the experimental part: In advance of in vivo testing, it was shown that the inhibitors retained potency against the isolated P. berghei CDPK1 enzyme.[16] Compounds were dosed with an oral, once daily 50 mg/kg regime over 4 days in the standard Peters test, and their in vitro ADME and in vivo efficacy data is shown in Table 6.

The nature of data set [7]: Mouse pharmacokinetics. It is filed as in vivo.
Data set [8] deals with 73-member human kinase panel. As to the kind of experiment: Kinase selectivity against 73-member human kinase panel. It is filed as biochemical. The conditions noted are these: 1 μM inhibitor concentration; for Kinases hit in human kinase panel: 73-member panel. As for the experimental part:
[17] Kinase selectivity profiling was carried out at the National Centre for Protein Kinase Profiling in the MRC Protein Phosphorylation Unit at the University of Dundee.

Data set [9] can be described thus: PAMPA permeability. It is filed as in vitro ADME.
Where [10] appears, read: in vitro parasite growth, 48 h, read-out: P. falciparum EC50.

Chain of PfCDPK1 (P62344 whole entry, the tested form may be a part): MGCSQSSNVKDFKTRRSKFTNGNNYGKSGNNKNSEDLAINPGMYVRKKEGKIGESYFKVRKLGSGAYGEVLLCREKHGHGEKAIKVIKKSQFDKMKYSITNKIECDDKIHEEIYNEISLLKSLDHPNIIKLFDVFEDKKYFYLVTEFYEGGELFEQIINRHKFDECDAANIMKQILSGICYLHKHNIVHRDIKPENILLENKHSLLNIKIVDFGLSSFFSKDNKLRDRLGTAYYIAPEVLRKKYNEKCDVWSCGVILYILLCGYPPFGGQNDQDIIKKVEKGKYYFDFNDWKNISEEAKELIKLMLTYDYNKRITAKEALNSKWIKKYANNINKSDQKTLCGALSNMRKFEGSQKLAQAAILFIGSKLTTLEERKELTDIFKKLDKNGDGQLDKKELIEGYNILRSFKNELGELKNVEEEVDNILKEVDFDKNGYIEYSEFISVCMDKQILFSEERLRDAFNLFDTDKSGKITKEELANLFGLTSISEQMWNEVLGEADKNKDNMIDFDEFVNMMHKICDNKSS

The term IC50 denotes the concentration needed to halve the response being measured. A word on the inhibition: it is the drop in the measured response relative to a control, in per cent. Read a low inhibition as a response near the control. Turning to `NC(=O)c1ccc(-c2cnc3ccc(NCCc4cccnc4)nn23)cc1` [Compound 1], the IC50 in data set [1] was determined as 59 nM. The same compound gave an inhibition at 1 µM in [2] of 99%.

Take `NC(=O)c1ccc(-c2cnc3ccc(NCCc4ccccn4)nn23)cc1` [Compound 2]: the half-maximal inhibitory concentration (IC50) in data set [1] was found to be 61 nM. Moreover, the inhibition at 1 µM in [2] amounted to 99%.

Take `CC(=O)Nc1cccc(-c2cnc3ccc(NCCc4ccccn4)nn23)c1` [Compound 3]: the IC50 in data set [1] came to 66 nM. The compound further came in with an inhibition at 1 µM in data set [2] of 35%.

On to `N#Cc1ccc(-c2cnc3ccc(NCCc4cccnc4)nn23)cc1` [Compound 4], for which, in data set [1], the IC50 was determined as 71 nM. The compound also gave an inhibition at 1 µM in [2] of 98%.

`Fc1cccc(-c2cnc3ccc(NCCc4cccnc4)nn23)c1` [Compound 5]: the concentration for half-maximal inhibition (IC50) in data set [1] stood at 80 nM. The inhibition at 1 µM in [2] came out at 6%.

For the compound `CC(=O)Nc1cccc(-c2cnc3ccc(N[C@H]4CC[C@H](N)CC4)nn23)c1` [Compound 6], the IC50 in data set [1] is 11 nM. The EC50 in data set [2] (setting [10]) amounted to 320 nM.

As for `CN1CCC(Nc2ccc3ncc(-c4cccc(NC(=O)C5CC5)c4)n3n2)CC1` [Compound 7], in data set [1], the IC50 stood at 22 nM. In addition, the EC50 in data set [2] (setting [10]) was determined as 560 nM.

In the case of `COC(=O)Nc1cccc(-c2cnc3ccc(NC4CCN(C)CC4)nn23)c1` [Compound 8], the IC50 in [1] amounted to 18 nM. Further, the EC50 in [2] (setting [10]) came out at 750 nM.

As for `CC(C)CCNC(=O)c1ccc(-c2cnc3ccc(N[C@H]4CC[C@H](N)CC4)nn23)cc1` [Compound 9], the IC50 in [1] worked out at 16 nM. Further, the “EC50 against the P. falciparum parasite” value in data set [2] is “sub-micromolar”. In addition, the EC50 in data set [2] (setting [10]) amounted to 460 nM.

Take `CC(C)CCNC(=O)c1ccc(-c2cnc3ccc(NC4CCN(C)CC4)nn23)cc1` [Compound 10]: the concentration for half-maximal inhibition (IC50) in data set [1] was 23 nM. For the same compound, the “EC50 against the P. falciparum parasite” value in [2] is given as “sub-micromolar”. Also, the EC50 in data set [2] (setting [10]) was 780 nM.

By logD is commonly meant the decadic logarithm of the distribution of all forms, ionised or not, between an organic phase and buffer at a given pH. A higher logD goes with higher lipophilicity. As for `CC(C)CCNc1ccc(-c2cnc3ccc(NC4CCN(C)CC4)nn23)cn1` [Compound 17], the EC50 in data set [2] (P. falciparum, read-out: Cell potency) is < 500 nM. For the same compound, in data set [2] (setting [10]), the EC50 was found to be 400 nM. The “MLM (% rem)” value in [3] is reported as 63 % rem. In addition, in data set [4], the “HLM (% rem)” value is 85 % rem. For the same compound, the logD in data set [5] was found to be 3.4. Also, the “Reduction in parasitaemia in vivo” value in data set [6] came out at 46%. Further, in data set [7], the “Clearance (in words)” value is on record as “moderate to high clearance”, the “Oral bioavailability in mouse (in words)” value was “good oral bioavailability” and the “i.v. t1/2” value is given as 2 h. In addition, the “Oral %F” value in data set [7] (oral) was determined as 84%. The “Kinases hit in human kinase panel” value in data set [8] was “MKK1, RSK1, PKD1, CHK2, Aurora B, NUAK1, GCK, MLK1, Src, Lck, YES1, and VEGFR”.

Turning to `CCCCNc1ccc(-c2cnc3ccc(NC4CCN(C)CC4)nn23)cn1` [Compound 18], the concentration for half-maximal inhibition (IC50) in [1] was 14 nM. Besides, the EC50 in data set [2] (setting [10]) is 430 nM.

For `CN1CCC(Nc2ccc3ncc(-c4ccc(NCC5CC5)nc4)n3n2)CC1` [Compound 19], the IC50 in data set [1] worked out at 36 nM. Besides, in [2] (setting [10]), the EC50 is 450 nM.

In the case of `COCCNc1ccc(-c2cnc3ccc(NC4CCN(C)CC4)nn23)cn1` [Compound 20], in data set [1], the IC50 is 25 nM. The EC50 in data set [2] (setting [10]) is 670 nM.

Consider `CC(C)CCNc1cc(-c2cnc3ccc(NC4CCN(C)CC4)nn23)ccn1` [Compound 21], for which the “Loss in potency against the enzyme in comparison to 17” value in data set [1] (PfCDPK1) is “sevenfold loss in potency”. For the same compound, the IC50 in [1] was 88 nM.

As usually defined, the Papp is a coefficient for how fast a substance crosses the barrier. Low readings indicate slow passage, high ones fast passage. `CC(C)CCNc1ccc(-c2cnc3ccc(NC4CCN(C)C4)nn23)cn1` (stereo not shown) [Compound 24]: the IC50 in [1] is 23 nM. The EC50 in [2] (setting [10]) is 170 nM. Besides, the “MLM (% rem)” value in data set [3] was determined as 74 % rem. Besides, in [4], the “HLM (% rem)” value is given as 63 % rem. This compound had a log distribution coefficient (logD) in data set [5] of 3.5. In [9], this compound came in with a Papp of 11.4 ×10⁻⁶ cm/s. The “Reduction in parasitaemia in vivo” value in [6] worked out at 30%. In data set [8], the “Selectivity profile against panel of human kinases” value is reported as “good selectivity profiles”; the “Kinases hit in human kinase panel” value is “RSK1 and HER4”.

Turning to `CC(C)CCNc1ccc(-c2cnc3ccc(NC4CN(C)C4)nn23)cn1` [Compound 25], the IC50 in [1] was determined as 89 nM. Besides, the EC50 in data set [2] (setting [10]) turned out to be 930 nM.

In the case of `CC(C)CCNc1ccc(-c2cnc3ccc(N4CCN(C)CC4)nn23)cn1` [Compound 26], the IC50 in data set [1] worked out at 175 nM. The EC50 in data set [2] (setting [10]) turned out to be 2400 nM.

In the case of `CC(C)CCNc1ccc(-c2cnc3ccc(N4CCC(N(C)C)CC4)nn23)cn1` [Compound 27], the IC50 in [1] is 44 nM. For the same compound, in data set [2] (setting [10]), the EC50 amounted to 570 nM. Further, the “MLM (% rem)” value in [3] is listed as 84 % rem. In [4], the “HLM (% rem)” value is 80 % rem. Moreover, the logD in [5] came out at 3.2. In [9], this compound displayed a Papp of 13.7 ×10⁻⁶ cm/s. Further, the “Reduction in parasitaemia in vivo” value in data set [6] is 7%.

For the compound `CC(C)CCNc1ccc(-c2cnc3ccc(N4CCC(N)CC4)nn23)cn1` [Compound 28], the IC50 in [1] worked out at 13 nM. Besides, the EC50 in data set [2] (setting [10]) was found to be 140 nM. Further, the “MLM (% rem)” value in data set [3] is 90 % rem. The “HLM (% rem)” value in [4] is recorded as 90 % rem. Besides, the log distribution coefficient (logD) in data set [5] was 2.5. In [9], this compound showed a Papp of 5.5 ×10⁻⁶ cm/s. Moreover, the “Reduction in parasitaemia in vivo” value in data set [6] was 11%. Moreover, in data set [8], the “Selectivity profile against panel of human kinases” value was “good selectivity profiles”; the “Kinases hit in human kinase panel” value is “RSK1, CAMK1, PHK, NUAK1, and HER4”.

On to `CC(C)CCNc1ccc(-c2cnc3ccc(NC4CCNCC4)nn23)cn1` [Compound 29], for which the half-inhibitory concentration (IC50) in data set [1] was found to be 15 nM. Also, the EC50 in data set [2] (setting [10]) came to 240 nM.

Regarding `CC(C)CCOc1ccc(-c2cnc3ccc(N[C@H]4CC[C@H](N)CC4)nn23)cn1` [Compound 30], the IC50 in data set [1] came out at 170 nM. Besides, in data set [2] (setting [10]), the EC50 is 540 nM.

As to `CC(C)CCNc1ncc(-c2cnc3ccc(NC4CCN(C)CC4)nn23)cn1` [Compound 31], the IC50 in data set [1] amounted to 14 nM. Besides, in data set [2] (setting [10]), the EC50 turned out to be 470 nM.

Turning to `CC(C)CCNc1ncc(-c2cnc3ccc(N[C@H]4CC[C@H](N)CC4)nn23)cn1` [Compound 32], in [1], the half-inhibitory concentration (IC50) is 16 nM. Also, the EC50 in data set [2] (setting [10]) worked out at 170 nM.

Turning to `CC(C)CCNc1nccc(-c2cnc3ccc(NC4CCN(C)CC4)nn23)n1` [Compound 33], in data set [1], the half-inhibitory concentration (IC50) stood at 424 nM.
